Data reported in patent US4094966A, “Iodobenzene derivatives and X-ray contrast media containing the same” (priority 1974, dated 1978).

Legend:
[1] = test system: femoral artery; test: Effect on the femoral rate of flow (peripheral vasodilatation); format: in vivo, mongrels
Protocol: This test was carried out in Nembutal-anesthetized male or female 7-12 mongrels.
Nembutal was used at a dosage of 30 mg/kg, with Vetranquil pre-medication, (overall intravenous injection of 2.5 mg), respiration was spontaneous.
Rate of flow variations were recorded at the level of the right or left fermoral artery, by means of a Statham electromagnetic sensor.
The injections were made in a collateral of the fermoral artery, downstream of the sensor, by means of a catheter mounted by the retrograde route, so as not to perturb the blood flow.
The injections were made under a constant volume of 1.5 ml administered within 3-5 seconds.
The same volume of an iostonic sodium chloride solution was also injected.

[2] = test system: mice; test: Acute toxicity determination, intravenous toxicity in mice; format: in vivo, mice (Swiss origin, IOPS mice of OFI strain); details: 24 hours
Protocol: Intravenous toxicity determination was effected in Swiss origin, IOPS mice of OFI strain.
Each dosage level was injected to a lot of 10 mice comprising 5 male and 5 female mice.
Injections were made manually, in the caudal vein, at a rate of 2 ml/minute.
Death rate during the 24 hours after injection was recorded.

[3] = Biliary clearance test in cats; format: in vivo; parameters: scale not given here
Protocol: This test was conducted in male or female adult cats weighing 3-4 kg.
The test material was injected intravenously, at a dosage of 0.10 g/kg iodine at the level of the internal saphenous vein. Clearance of the material was monitored by X-ray control.
X-ray pictures visualizing the gall bladder and the bladder were taken at the following times: 30 minutes, 1 hour, 2 hours, 3 hours, 4 hours, 5 hours, 6 hours.

[4] = Osmolality determination (FISKE osmometer); format: physicochemical; details: solutions containing 28% iodine; methylglucamine salts; extrapolation from successive dilutions
Protocol: Osmolality is determined by extrapolation of the values obtained on successive dilutions of solutions containing 28% or 38% iodine.
Osmolality readings are made with a FISKE Model 230/D/330 D osmometer. This apparatus indicates this measurement as milliosmoles per kg of solution. Its operation is based on the principles of cryoscopy. The determinations were made with solutions containing 28% iodine.

[5] = 1.5 ml into collateral of femoral artery, 28% I, Mgl salt
[6] = i.v., 0.10 g I/kg, 28% I, Mgl salt

SMILES | Osmolality [4] [mosm/kg] | Peripheral vasodilatation, femoral rate of flow [1, 5] | Acute toxicity in mice, i.v. ([2]; 28% I, Mgl salt) [grams I/kg] | Biliary clearance in cat, i.v. [3, 6] | further results
CC(=O)Nc1c(I)c(C(=O)O)c(I)c(C(=O)NCCO)c1I [b, 2,4,6-Triiodo-3-N-hydroxyethylcarbamyl-5-acetamido-benzoic acid, reference compound] | 1390 | – | – | – | Peripheral vasodilatation, femoral rate of flow ([1]; 1.5 ml into collateral of femoral artery, 30% I, Mgl salt): +++; Acute toxicity in mice, i.v. ([2]; 30% I, Mgl salt): 5.6 grams I/kg; Biliary clearance in cat, i.v. ([3]; i.v., 0.10 g I/kg, 30% I, Mgl salt): 0
CNC(=O)c1c(I)c(NC(=O)C(O)C(O)C(O)C(O)CO)c(I)c(C(=O)NCC(=O)Nc2c(I)c(C(=O)O)c(I)c(C(=O)NCCO)c2I)c1I (stereo not shown) [Compound 36, 2,4,6-triiodo-3-hydroxyethylcarbamyl-5-(2,4,6-triiodo-3-N-methylcarbamyl-5-glyconylamino-benzoyl) glycylamino-benzoic acid] | – | ++ | 8 | 0 | –
CNC(=O)c1c(I)c(NC(=O)CNC(=O)c2c(I)c(NC(=O)CNC(=O)c3c(I)c(NC(C)=O)c(I)c(C(=O)NC)c3I)c(I)c(N(C)C(C)=O)c2I)c(I)c(C(=O)O)c1I [Compound 16, 2,4,6-triiodo-3-N-methylcarbamyl-5-[2,4,6-triiodo-3-N-methylacetamido-5-(2,4,6-triiodo-3-N-methylcarbamyl-5-acetamido-benzoyl)glycylamino-benzoyl]-glycylamino-benzoic acid] | 250 | – | – | – | Peripheral vasodilatation, femoral rate of flow ([1]; in vivo): +; Biliary clearance in cat, i.v. ([3]; in vivo, iv): 0
CNC(=O)c1c(I)c(NC(C)=O)c(I)c(C(=O)NCC(=O)Nc2c(I)c(C(=O)O)c(I)c(N(C)C(C)=O)c2I)c1I [Compound 26, 12,4,6-triiodo-3-N-methylacetamido-5-(2,4,6-triiodo-3-N-methylcarbamyl-5-acetamido-benzoyl)-glycylamino-benzoic acid] | 500 | – | – | – | Peripheral vasodilatation, femoral rate of flow ([1]; 1.5 ml into collateral of femoral artery, 38% I, Na salt): ++; Acute toxicity in mice, i.v. ([2]; 38% I, Na salt): 13 grams I/kg; Biliary clearance in cat, i.v. ([3]; i.v., 0.10 g I/kg, 38% I, Na salt): 0
CNC(=O)c1c(I)c(C(=O)NC(C)C(=O)Nc2c(I)cc(I)c(C(=O)O)c2I)c(I)c(N(C)C(C)=O)c1I (stereo not drawn) [Compound 23, 2,4,6-triiodo-3-(2,4,6-triiodo-3-N-methyl-carbamyl-5-N-methylacetamido-benzoyl)-α-aminoproionylamino-benzoic acid] | 535 | +++ | 3.5 | ++++ | –
O=C(CCCCC(=O)Nc1c(I)cc(I)c(C(=O)O)c1I)Nc1c(I)cc(I)c(C(=O)O)c1I [e, 3,3'-Adipoyldiimino-bis(2,4,6-triiodobenzoic) acid, reference compound] | – | ++++ | 2 | – | Biliary clearance in cat, i.v. ([3]; in vivo, iv): ++++
CNC(=O)c1c(I)c(NC(=O)CNC(=O)c2c(I)cc(I)c(N(C)C(C)=O)c2I)c(I)c(C(=O)O)c1I [Compound 18, 2,4,6-triiodo-3-N-methylcarbamyl-5-(2,4,6-triiodo-3-N-methylacetamido-benzoyl-glycyl)-amino-benzoic acid] | 390 | ++++ | – | ++++ | –
CNC(=O)c1c(I)c(NC(=O)CNC(=O)c2c(I)c(NC(=O)CNC(=O)c3c(I)c(C(=O)NC)c(I)c(N(C)C(C)=O)c3I)c(I)c(N(C)C(C)=O)c2I)c(I)c(C(=O)O)c1I [Compound 17, 2,4,6-triiodo-3-N-methylcarbamyl-5-[2,4,6-triiodo-3-N-methylacetamido-5-(2,4,6-triiodo-3-N-methylcarbamyl-5-N-methylacetamido-benzoyl)glycyl-aminobenzoyl]-glycyl-amino-benzoic acid] | 200 | – | – | – | Peripheral vasodilatation, femoral rate of flow ([1]; in vivo): ++; Biliary clearance in cat, i.v. ([3]; in vivo, iv): 0
CNC(=O)c1c(I)c(NC(C)=O)c(I)c(C(=O)O)c1I [a, 2,4,6-Triiodo-3-N-methylcarbamyl-5-acetamido-benzoic acid, reference compound] | 1410 | +++ | 5.4 | – | Biliary clearance in cat, i.v. ([3]; in vivo, iv): 0
CNC(=O)c1c(I)c(NC(C)=O)c(I)c(C(=O)NCC(=O)N(C)c2c(I)c(C(=O)O)c(I)c(C(=O)NCCO)c2I)c1I [Compound 38, 2,4,6-triiodo-3-N-hydroxyethylcarbamyl-5-(2,4,6-triiodo-3-N-methylcarbamyl-5-acetamido-benzoyl)-glycyl-N-methylamino-benzoic acid] | 635 | – | – | – | –
CNC(=O)c1c(I)c(C(=O)NCCCC(=O)N(C)c2c(I)c(C(=O)O)c(I)c(C(=O)NC)c2I)c(I)c(N(C)C(C)=O)c1I [Compound 37, 2,4,6-triiodo-3-N-methylcarbamyl-5-(2,4,6-triiodo-3-N-methylcarbamyl-5-N-methylacetamido-benzoyl)-γ-aminobutyryl-N-methylamino-benzoic acid] | 730 | ++++ | < 6 | ++ | –
CNC(=O)c1c(I)c(NC(C)=O)c(I)c(C(=O)NCC(=O)N(C)c2c(I)cc(I)c(C(=O)O)c2I)c1I [Compound 21, 2,4,6-triiodo-3-(2,4,6-triiodo-3-N-methylcarbamyl-5-acetamido-benzoyl)glycyl-N-methylamino-benzoic acid] | 580 | – | – | – | Peripheral vasodilatation, femoral rate of flow ([1]; 1.5 ml into collateral of femoral artery, 20% I, Mgl salt): ++++; Acute toxicity in mice, i.v. ([2]; 20% I, Mgl salt): 4-5 grams I/kg; Biliary clearance in cat, i.v. ([3]; i.v., 0.10 g I/kg, 20% I, Mgl salt): +++
CC(=O)Nc1c(I)c(NC(=O)CNC(=O)c2c(I)c(NC(C)=O)c(I)c(N(C)C(C)=O)c2I)c(I)c(C(=O)O)c1I [Compound 20, 2,4,6-triiodo-3-acetamido-5-(2,4,6-triiodo-3-N-methylacetamido-5-acetamido-benzoyl)-glycylaino-benzoic acid] | 755 | – | – | – | Peripheral vasodilatation, femoral rate of flow ([1]; 1.5 ml into collateral of femoral artery, 28 and 38% I, Na salt): +; Acute toxicity in mice, i.v. ([2]; 28 and 38% I, Na salt): 7.5 grams I/kg
CNC(=O)c1c(I)c(C(=O)NCC(=O)Nc2c(I)cc(I)c(C(=O)O)c2I)c(I)c(N(C)C(C)=O)c1I [Compound 19, 2,4,6-triiodo-5-(2,4,6-triiodo-3-N-methylcarbamyl-5-N-methylacetamido-benzoyl) glycylamino-benzoic acid] | 500 | ++++ | 4 | ++++ | –
CNC(=O)c1c(I)c(C(=O)NCCCCCC(=O)Nc2c(I)cc(I)c(C(=O)O)c2I)c(I)c(N(C)C(C)=O)c1I [Compound 10, 2,4,6-triiodo-5-(2,4,6-triiodo-3-N-methylcarbamyl-5-N-methylacetamido-benzoyl)-ε-aminocaproylamino-benzoic acid] | 420 | ++++ | 1.5 | ++++ | –
CNC(=O)c1c(I)c(NC(=O)CCCNC(=O)c2c(I)c(C(=O)NCCO)c(I)c(N(C)C(C)=O)c2I)c(I)c(C(=O)O)c1I [Compound 7, 2,4,6-triiodo-3-N-methylcarbamyl-5-(2,4,6-triiodo-3-N-hydroxyethylcarbamyl-5-N-methylacetamido-benzoyl)γ-aminobutyrylamino-benzoic acid] | 525 | ++ | 5 | 0 | –
CC(=O)Nc1c(I)c(NC(C)=O)c(I)c(C(=O)O)c1I [d, 2,4,6-Triiodo-3,5-bis-(acetamido)-benzoic acid, reference compound] | – | – | – | – | Peripheral vasodilatation, femoral rate of flow ([1]; in vivo): +++; Acute toxicity in mice, i.v. ([2]; 38% I, mixed Mgl and Na salt): 5.7 grams I/kg; Biliary clearance in cat, i.v. ([3]; i.v., 0.10 g I/kg, 38% I, mixed Mgl and Na salt): 0
CNC(=O)c1c(I)c(NC(=O)CNC(=O)c2c(I)c(NC(=O)C(O)C(O)C(O)C(O)CO)c(I)c(C(=O)NC)c2I)c(I)c(C(=O)O)c1I (stereo not shown) [Compound 35, 2,4,6-triiodo-3-N-methylcarbamyl-5-(2,4,6-triiodo-3-N-methylcarbamyl-5-gluconylamino-benzoyl)glycylamino-benzoic acid] | – | + | 8 | 0 | –
